According to ChEMBL document CHEMBL1150007, “Novel indolactam-based inhibitors of matrix metalloproteinases” (Bioorg Med Chem Lett, 1995):

Columns and labels:
Interstitial collagenase = biological target: T1, Interstitial collagenase (Homo sapiens, UniProt P03956); assay: Inhibition of human fibroblast collagenase, matrix metalloprotease-1
T1 sequence (P03956 whole entry): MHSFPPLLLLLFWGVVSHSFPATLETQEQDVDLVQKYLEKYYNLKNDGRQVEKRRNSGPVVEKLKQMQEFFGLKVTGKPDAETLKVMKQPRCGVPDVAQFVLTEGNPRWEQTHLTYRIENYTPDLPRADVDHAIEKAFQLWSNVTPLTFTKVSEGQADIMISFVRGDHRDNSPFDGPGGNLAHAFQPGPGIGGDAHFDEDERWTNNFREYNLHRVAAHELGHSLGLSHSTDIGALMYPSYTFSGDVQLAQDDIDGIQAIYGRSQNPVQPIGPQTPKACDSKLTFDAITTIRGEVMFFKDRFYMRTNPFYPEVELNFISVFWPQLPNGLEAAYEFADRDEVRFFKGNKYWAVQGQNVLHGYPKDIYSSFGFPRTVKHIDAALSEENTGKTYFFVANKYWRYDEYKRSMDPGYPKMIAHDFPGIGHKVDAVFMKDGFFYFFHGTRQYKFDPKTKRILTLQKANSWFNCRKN

Neutrophil collagenase = Neutrophil collagenase (Homo sapiens, UniProt P22894); assay: Inhibition of human Matrix metalloprotease-8
Chain of Neutrophil collagenase (P22894 whole entry): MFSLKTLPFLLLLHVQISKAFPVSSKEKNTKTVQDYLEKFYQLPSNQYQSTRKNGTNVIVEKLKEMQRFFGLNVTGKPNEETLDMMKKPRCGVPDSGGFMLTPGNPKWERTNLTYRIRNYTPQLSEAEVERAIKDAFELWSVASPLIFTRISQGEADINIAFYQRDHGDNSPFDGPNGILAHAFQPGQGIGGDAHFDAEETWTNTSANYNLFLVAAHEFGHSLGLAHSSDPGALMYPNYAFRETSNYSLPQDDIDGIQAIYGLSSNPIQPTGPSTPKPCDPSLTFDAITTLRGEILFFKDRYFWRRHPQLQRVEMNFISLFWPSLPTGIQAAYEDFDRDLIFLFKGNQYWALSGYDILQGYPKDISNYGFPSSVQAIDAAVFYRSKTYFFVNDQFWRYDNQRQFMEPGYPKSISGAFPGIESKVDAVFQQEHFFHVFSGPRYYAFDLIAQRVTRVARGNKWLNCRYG

[1] = biological target: 72 kDa type IV collagenase (Homo sapiens, UniProt P08253); assay: Inhibition of human […], matrix metalloprotease-2
Chain of 72 kDa type IV collagenase (P08253 whole entry): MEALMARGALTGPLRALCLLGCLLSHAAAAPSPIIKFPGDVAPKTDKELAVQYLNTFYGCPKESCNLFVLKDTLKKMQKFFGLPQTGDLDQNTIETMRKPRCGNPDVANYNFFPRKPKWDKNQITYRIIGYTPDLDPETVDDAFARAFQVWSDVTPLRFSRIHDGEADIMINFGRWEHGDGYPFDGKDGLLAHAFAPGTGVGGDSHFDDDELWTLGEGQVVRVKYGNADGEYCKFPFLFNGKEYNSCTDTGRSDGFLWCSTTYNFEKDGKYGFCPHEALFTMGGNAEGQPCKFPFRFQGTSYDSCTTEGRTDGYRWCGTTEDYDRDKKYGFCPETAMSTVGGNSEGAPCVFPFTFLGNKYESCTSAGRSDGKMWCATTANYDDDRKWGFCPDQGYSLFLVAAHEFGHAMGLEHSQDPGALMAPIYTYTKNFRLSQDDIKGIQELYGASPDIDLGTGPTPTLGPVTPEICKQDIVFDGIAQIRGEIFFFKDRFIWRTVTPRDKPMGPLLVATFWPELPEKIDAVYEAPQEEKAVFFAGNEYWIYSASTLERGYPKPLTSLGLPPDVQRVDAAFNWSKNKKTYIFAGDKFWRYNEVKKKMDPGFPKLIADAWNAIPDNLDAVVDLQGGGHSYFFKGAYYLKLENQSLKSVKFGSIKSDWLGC

Stromelysin-1 = Stromelysin-1 (Homo sapiens, UniProt P08254); assay: Inhibition of human fibroblast stromelysin, matrix metalloprotease-3
Chain of Stromelysin-1 (P08254 whole entry): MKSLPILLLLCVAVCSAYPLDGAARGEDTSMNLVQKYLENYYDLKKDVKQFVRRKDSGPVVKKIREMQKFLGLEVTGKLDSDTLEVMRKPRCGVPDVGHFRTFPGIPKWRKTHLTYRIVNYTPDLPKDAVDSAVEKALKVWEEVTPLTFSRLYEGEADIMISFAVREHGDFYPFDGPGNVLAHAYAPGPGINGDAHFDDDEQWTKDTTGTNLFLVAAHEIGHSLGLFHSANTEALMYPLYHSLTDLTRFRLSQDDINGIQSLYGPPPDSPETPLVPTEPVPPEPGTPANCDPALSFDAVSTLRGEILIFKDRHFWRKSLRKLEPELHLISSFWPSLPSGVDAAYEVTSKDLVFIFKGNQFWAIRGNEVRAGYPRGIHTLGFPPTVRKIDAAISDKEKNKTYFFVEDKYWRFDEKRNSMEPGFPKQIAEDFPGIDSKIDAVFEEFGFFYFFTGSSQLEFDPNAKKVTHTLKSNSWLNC

Matrilysin = biological target: T2, Matrilysin (Homo sapiens, UniProt P09237); assay: Inhibition of Matrix metalloprotease-7
T2 sequence (P09237 whole entry): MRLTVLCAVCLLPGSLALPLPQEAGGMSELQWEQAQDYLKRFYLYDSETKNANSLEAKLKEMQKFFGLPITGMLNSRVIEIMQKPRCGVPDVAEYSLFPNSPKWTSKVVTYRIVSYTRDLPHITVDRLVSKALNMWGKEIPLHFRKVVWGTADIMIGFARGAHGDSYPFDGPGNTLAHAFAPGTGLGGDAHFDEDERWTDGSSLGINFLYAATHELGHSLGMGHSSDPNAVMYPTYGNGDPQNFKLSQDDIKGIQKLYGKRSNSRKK

SMILES | Ki (Interstitial collagenase) [nM] | Ki (Neutrophil collagenase) [nM] | Ki [1] [nM] | Ki (Matrilysin) [nM] | Ki (Stromelysin-1) [nM]
CCCCCCNC(=O)[C@H](Cc1c[nH]c2ccccc12)NC(=O)[C@H](CC(C)C)CP(=O)(O)CSc1ccc2ccccc2n1 | 432 | 102 | 300 | – | 6580
CCCCCCNC(=O)[C@H](Cc1c[nH]c2ccccc12)NC(=O)[C@@H](CC(=O)O)CC(C)C | 171 | 163 | 472 | > 620 | –

Continued by falling Ki (Interstitial collagenase), values first:

Ki (Interstitial collagenase) [nM] | Ki (Neutrophil collagenase) [nM] | Ki [1] [nM] | Ki (Matrilysin) [nM] | SMILES | Ki (Stromelysin-1) [nM]
1500 | – | – | – | CNC(=O)[C@H](Cc1ccccc1)NC(=O)[C@H](CC(C)C)[C@H](CSc1cccs1)C(=O)O | –
5 | 4 | 14 | – | CC(C)C[C@H](CP(=O)(O)CSc1ccc2ccccc2n1)C(=O)N[C@H]1Cc2cn(c3ccccc23)CCCCCCNC1=O | 806
3 | 0.5 | 0.3 | – | CCCCCCNC(=O)[C@H](Cc1c[nH]c2ccccc12)NC(=O)[C@@H](CC(=O)NO)CC(C)C | –
